From US20100015147A1 (priority 2001, published 2010)
“Also recorded” adds a separate entry of the source. Where two headings read alike, the source gives them in different places.

Columns and labels:
mammalian neuraminidase = details: cultures of human macrophagic cells; cited from earlier work
Swiss-Webster (SW) mice [1] = assay: Hot-water-immersion tail-flick antinociception assays with neuraminidase inhibitors (temperature not given); format: in vivo
Swiss-Webster (SW) mice [2] = format: in vivo
Swiss-Webster (SW) mice [3] = format: in vivo; details: for effect on low-dose κ-opioid-induced hyperalgesia, compared with CTX-B cotreatment: 10 ng/kg U-50,488H plus ultralow (pg/kg) dose of antagonist
Swiss-Webster (SW) mice [4] = format: in vivo; remark: listed apart in the source
[5] = tested on: male dental-pain patients; details: cited from earlier work
Swiss-Webster (SW) mice [6] = details: low doses in naïve mice; cited from earlier work
mice = details: cited from earlier work

Compound: O=S(=O)([O-])[O-].[Mg+2] [MgSO4]
- effect on mammalian neuraminidase activity (mammalian neuraminidase): potent inhibitory effects on mammalian neuraminidase activity

Compound: O=S(=O)([O-])[O-].[Na+].[Na+] [Na2SO4]
- results of antinociception assays compared with oseltamivir (Swiss-Webster (SW) mice [1]; 3 μg/kg morphine plus 10 mg/kg Na2SO4): surprisingly similar
- development of tolerance (Swiss-Webster (SW) mice [1]; 10 mg/kg Na2SO4 plus 3 mg/kg morphine, daily injections for 5 days): prevented development of tolerance during daily injections for 5 days
- effect on morphine analgesia (Swiss-Webster (SW) mice [1]; chronic 10 mg/kg Na2SO4 plus 3 mg/kg morphine): enhanced analgesia
- NLX-precipitated withdrawal hyperalgesia (Swiss-Webster (SW) mice [2]; mouse, in vivo): prevented NLX-precipitated withdrawal hyperalgesia
- effect on mammalian neuraminidase activity (mammalian neuraminidase): potent inhibitory effects on mammalian neuraminidase activity

Compound: CN1CC[C@]23c4c5ccc(O)c4O[C@H]2[C@@H](O)C=C[C@H]3[C@H]1C5 [morphine]
- response after chronic morphine only (Swiss-Webster (SW) mice [1]; morphine-only group, 5 days (FIG. 9)): marked hyperalgesia
- effect on tail-flick latency, opioid alone (Swiss-Webster (SW) mice [3]; 0.1 μg/kg morphine s.c. alone, control groups): marked hyperalgesia; also recorded: characteristic hyperalgesia
- duration of decreases in tail-flick latencies (hyperalgesia) after drug injection (Swiss-Webster (SW) mice [3]; 1 μg/kg morphine s.c. alone, 52° C., male mice): 4 to 5 h
- time after opioid injection to hyperalgesia (Swiss-Webster (SW) mice [3]; 1 mg/kg morphine s.c. alone, control group of female mice): ≤ 2 h
- decreases in tail-flick latencies (Swiss-Webster (SW) mice [3]; ca. 1 μg/kg morphine s.c. alone, 52° C.): 1 to 2 s
- time course of antinociceptive effect, morphine alone (Swiss-Webster (SW) mice [4]; 3 mg/kg morphine alone, 55° C.): sharply decreased after the first-hour peak
- analgesic effects after chronic morphine alone (tolerance) (Swiss-Webster (SW) mice [4]; daily 3 mg/kg morphine alone, 5 days): sharply decreased by 5 days

Compound: Oc1ccc2c3c1O[C@H]1[C@@H](O)CC[C@@]4(O)[C@@H](C2)N(CC2CCC2)CC[C@]314 [nalbuphine]
- effect on pain within 1 h after injection ([5]; nalbuphine 5 mg i.v.): hyperalgesia

Compound: C=CCN1CC[C@]23c4c5ccc(O)c4O[C@H]2C(=O)CC[C@@]3(O)[C@H]1C5 [naloxone]
- effect on baseline tail-flick latency (Swiss-Webster (SW) mice [6]): did not alter the baseline tail-flick latency
- duration of NLX-evoked hyperalgesic response (Swiss-Webster (SW) mice [2]; chronic morphine (e.g., 10 mg/kg for 5-6 days), withdrawal, 10 μg/kg NLX): more than 5 h
- effect on nalbuphine-induced hyperalgesia ([5]; cotreatment with 0.5 mg naloxone): blocked

Compound: O=C1CC[C@@]2(O)[C@H]3Cc4ccc(O)c5c4[C@@]2(CCN3CC2CC2)[C@H]1O5 [naltrexone]
- effect on baseline tail-flick latency (Swiss-Webster (SW) mice [6]): did not alter the baseline tail-flick latency
- effect on low-dose κ-opioid-induced hyperalgesia, compared with CTX-B cotreatment (Swiss-Webster (SW) mice [3]): similar
- effect on low-dose κ-opioid-induced hyperalgesia, compared with CTX-B cotreatment (Swiss-Webster (SW) mice [3]; listed as NTX): comparable; also recorded: selectively blocked
- block of low-dose morphine hyperalgesia and unmasking of analgesia, compared with CTXB cotreatment (Swiss-Webster (SW) mice [3]; 1 μg/kg morphine plus 1 pg/kg (ultralow-dose) naltrexone): similar

Compound: Oc1ccc2c3c1O[C@H]1c4[nH]c5c(c4C[C@@]4(O)[C@@H](C2)N(CC2CC2)CC[C@]314)C[C@@]1(O)[C@H]2Cc3ccc(O)c4c3[C@@]1(CCN2CC1CC1)[C@H]5O4 [nor-binaltorphimine]
- effect on low-dose κ-opioid-induced hyperalgesia, compared with CTX-B cotreatment (Swiss-Webster (SW) mice [3]): comparable; also recorded: selectively blocked; also recorded: similar

Compound: CCOC(=O)C1=C[C@@H](OC(CC)CC)[C@H](NC(C)=O)[C@@H](N)C1 [oseltamivir]
- time to development of morphine tolerance after withdrawal of oseltamivir (Swiss-Webster (SW) mice [1]; FIG. 10): ≤ 1 days
- development of opioid tolerance (Swiss-Webster (SW) mice [1]; chronic cotreatment with morphine plus oseltamivir (FIGS. 8 and 9)): attenuates development of opioid tolerance
- development of opioid tolerance (Swiss-Webster (SW) mice [1]; chronic oseltamivir plus morphine for 3 days (FIG. 8)): prevents development of opioid tolerance
- effect on analgesic potency of higher doses of morphine (Swiss-Webster (SW) mice [1]; cotreatment with oseltamivir, male mice (FIG. 7)): markedly enhances the analgesic potency
- effect on low-dose morphine-induced hyperalgesia (Swiss-Webster (SW) mice [1]; morphine plus oseltamivir s.c., male mice (FIG. 6)): selectively blocks; also recorded: blocks low-dose, morphine-induced hyperalgesia
- effect of adding oseltamivir to chronic morphine-tolerant mice (Swiss-Webster (SW) mice [1]; oseltamivir added for 1 day (FIG. 10)): restores prominent analgesia
- morphine analgesia after chronic cotreatment (Swiss-Webster (SW) mice [1]; oseltamivir plus morphine, 5 days (FIG. 9)): still show prominent morphine (Mor) analgesia
- NLX-precipitated withdrawal hyperalgesia (Swiss-Webster (SW) mice [2]; chronic cotreatment with morphine plus oseltamivir): prevented development of NLX-precipitated withdrawal hyperalgesia

Compound: dynorphin
- effect on tail-flick latency (mice; dynorphin 0.5 μg/kg s.c., tested at 90 min post-injection): thermal hyperalgesia
- effect on tail-flick latency (mice; dynorphin 50 μg/kg): analgesia
